Test results reported in the supplement of paper PMC10307832.

What was measured:
Assay in all cases: relative viability (nuclei count vs DMSO), 5 days (fraction); higher = more cells survive
ALW-II-49-7 + OSI-027 = compound: Cc1ccc(C(=O)Nc2cccc(C(F)(F)F)c2)cc1Nc1cncc(C(N)=O)c1 [ALW-II-49-7] + COc1cccc2cc(-c3nc([C@H]4CC[C@H](C(=O)O)CC4)n4ncnc(N)c34)[nH]c12 [OSI-027] (partner 0.5 µM)
Method in brief: (§1)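 After 5 days of treatment, lung cancer cells in 1536-well plates were fixed and stained in a single step (final 0.05% Triton X-100, 1% formaldehyde, 1 ug/ml Hoechst) and their nuclei counted on 4× images. Treatment had been applied by pin tool the day after seeding as one drug alone or as a fixed anchor-drug dose with five library-drug doses (not always all listed) in √10 steps. Relative viability is the nuclei count of treated wells divided by that of vehicle wells, and values are medians of duplicate plates.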

ALW-II-49-7 + Linsitinib = compound: Cc1ccc(C(=O)Nc2cccc(C(F)(F)F)c2)cc1Nc1cncc(C(N)=O)c1 [ALW-II-49-7] + C[C@]1(O)C[C@@H](c2nc(-c3ccc4ccc(-c5ccccc5)nc4c3)c3c(N)nccn32)C1 [Linsitinib] (partner 1 µM)
Method in brief: as §1

Dasatinib + Bortezomib = compound: Cc1nc(Nc2ncc(C(=O)Nc3c(C)cccc3Cl)s2)cc(N2CCN(CCO)CC2)n1 [Dasatinib] + CC(C)C[C@H](NC(=O)[C@H](Cc1ccccc1)NC(=O)c1cnccn1)B(O)O [Bortezomib] (partner 0.002 µM)
Method in brief: as §1

Dasatinib + OSI-027 = compound: Cc1nc(Nc2ncc(C(=O)Nc3c(C)cccc3Cl)s2)cc(N2CCN(CCO)CC2)n1 [Dasatinib] + COc1cccc2cc(-c3nc([C@H]4CC[C@H](C(=O)O)CC4)n4ncnc(N)c34)[nH]c12 [OSI-027] (partner 0.5 µM)
Method in brief: as §1

UMC-11
relative viability (ALW-II-49-7 + OSI-027; first compound 0.08 µM): 0.499 | relative viability (ALW-II-49-7 + OSI-027; first compound 0.253 µM): 0.457 | relative viability (ALW-II-49-7 + OSI-027; first compound 0.8 µM): 0.487 | relative viability (ALW-II-49-7 + OSI-027; first compound 2.53 µM): 0.434 | relative viability (ALW-II-49-7 + OSI-027; first compound 8 µM): 0.485 | relative viability (ALW-II-49-7 + Linsitinib; first compound 0.08 µM): 0.989 | relative viability (ALW-II-49-7 + Linsitinib; first compound 0.253 µM): 0.902 | relative viability (ALW-II-49-7 + Linsitinib; first compound 2.53 µM): 1.12 | relative viability (ALW-II-49-7 + Linsitinib; first compound 8 µM): 1.04 | relative viability (Dasatinib + Bortezomib; first compound 0.005 µM): 0.668 | relative viability (Dasatinib + Bortezomib; first compound 0.01581 µM): 0.688 | relative viability (Dasatinib + Bortezomib; first compound 0.05 µM): 0.806 | relative viability (Dasatinib + Bortezomib; first compound 0.1581 µM): 0.313 | relative viability (Dasatinib + Bortezomib; first compound 0.5 µM): 0.291 | relative viability (Dasatinib + OSI-027; first compound 0.005 µM): 0.459 | relative viability (Dasatinib + OSI-027; first compound 0.01581 µM): 0.375 | relative viability (Dasatinib + OSI-027; first compound 0.05 µM): 0.413 | relative viability (Dasatinib + OSI-027; first compound 0.1581 µM): 0.329 | relative viability (Dasatinib + OSI-027; first compound 0.5 µM): 0.264
